Assay results taken from patent EP0458214A1, “Bicyclic 1-azacycloalcanes” (BOEHRINGER INGELHEIM KG, priority 1990, dated 1991).
Substitutions are numbered along the chain they refer to.

How the values were obtained:
[1] = molecular target: muskarinen Rezeptoren; test: Receptor binding studies (Tabelle A), radioligand displacement; settings: Radioligand L(+)cis-[2-Methyl-³H]-N,N,N-trimethyl-1, 3-dioxolan-4-methanammonium-jodid; Organ: Cerebraler Cortex (Ratte)
From the text: Die zur Synthese notwendigen Ausgangsverbindungen, die entsprechenden Hydroxyazabicycloalkane, sind aus dem Stand der Technik bekannt, [drawing 9] so z.B. für n = O aus JACS 74, 2215 (1952) (IIa), J. Org. Chem. 33, 4376 (1968) (IIb), der europäischen Patentanmeldung 307 140 (III) und J. Pharm. Science 52, 331 (1954) (IV). Ausgangsverbindungen (R = H), in denen n = 1 oder 2 bedeutet, sind durch Reduktion der entsprechenden Alkylester (X -R = COOAlkyl) erhältlich. Ausgehend von den entsprechenden Ketonen lassen sich die Thiole der allgemeinen Formeln II und III in Analogie zu dem in J. Chem. 43, 1965 beschriebenen Verfahren herstellen. Ist R in der allgemeinen Formel I ein aromatischer oder heteroaromatischer Rest, so können die Verbindungen der allgemeinen Formel I unter Anwendung der Mitsunobu Reaktion (O. Mitusunobu in Synthesis, 1, 1981, Georg Thieme Verlag, Stuttgart; J. C. S. Perkin I, Seite 462, 1975) durch Umsetzung der entsprechenden hydroxysubstituierten Reaktanden (Formel I R=H, Reagenz HOR, R=Phenyl,Heterocyclus) in Gegenwart von Azodicarbonsäurediethylester und Triphenylphospin erhalten werden. Die Umsetzung erfolgt im allgemeinen in inerten organischen Lösungsmitteln bei Raumtemperatur. Die Verbindungen der allgemeinen Formel I besitzen wertvolle pharmakologische Eigenschaften. So zeigen die Verbindungen in Bindungsstudien Affinitäten zu muskarinen Rezeptoren und muskarin-agonistische GTP-Shifts (GTP = Guanosintriphosphat). (Birdsall, N.I.M., E.C. Hulme and I.M. Stockton 1984 in T.I.P.S. Supplement, Proc. Internat. Symposium on Subtypes of Muscarinic Receptors, Ed. Hirschowitz, Hammer, Giacchetti, Klirns, Levine; Elsevier p. 4 - 8).
Die Rezeptorbindungsstudien wurden gemäß dem nachstehenden Literaturzitat ausgeführt [A. Closse, H. Bittiger, D. Langenegger und A. Wahner; Naunyn-Schmiedeberg's Arch. Pharmacol. 335, 372 - 377 (1987)].
Radioligand: L(+)cis-[2-Methyl-³H]-N,N,N-trimethyl-1, 3-dioxolan-4-methanammonium-jodid NET-647, Fa. NEN (New England Nuclear DU PONT). Organ: Cerebraler Cortex (Ratte)

[2] = molecular target: T1, human-m₁-Rezeptorsubtyp (Homo sapiens, UniProt P11229); test: Stimulation of phosphatidylinositol turnover in CHO cell cultures; format: cell-based; settings: CHO-Zellkulturen mit human-m₁-Rezeptorsubtyp; gegenüber dem Razemat und dem (-)-Enantiomer
T1 construct: expressed in transfected cells; host or cells: CHO cells
T1 sequence (P11229 1-460): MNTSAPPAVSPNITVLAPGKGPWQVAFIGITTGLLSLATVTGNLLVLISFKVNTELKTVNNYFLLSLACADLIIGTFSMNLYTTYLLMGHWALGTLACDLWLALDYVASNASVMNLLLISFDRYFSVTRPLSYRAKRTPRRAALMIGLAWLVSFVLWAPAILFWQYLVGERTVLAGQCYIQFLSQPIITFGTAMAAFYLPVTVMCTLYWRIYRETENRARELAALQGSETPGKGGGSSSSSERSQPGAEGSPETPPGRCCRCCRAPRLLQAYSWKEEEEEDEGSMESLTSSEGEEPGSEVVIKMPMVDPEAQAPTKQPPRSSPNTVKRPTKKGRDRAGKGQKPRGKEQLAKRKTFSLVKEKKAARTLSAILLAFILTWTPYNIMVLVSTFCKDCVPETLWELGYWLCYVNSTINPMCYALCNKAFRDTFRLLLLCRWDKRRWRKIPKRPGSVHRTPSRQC

[3] = system: Kaninchen; test: Cholinomimetic in vivo activity by EEG (theta wave increase)
From the text: Die cholinomimetische in-vivo-Wirksamkeit von (+)-(Propargyloxymethyl)-1-aza-bicyclo- [2.2.2]octan wurde am Kaninchen mittels EEG (Thetawellenzunahme) nachgewiesen.

[4] = molecular target: Muskarinsubtypen M₃ (Rattus norvegicus, UniProt P08483); test: Binding studies at muscarinic subtypes; parameters: species or system Ratte; settings: gegenüber dem Razemat und dem (-)-Enantiomer
Sequence of Muskarinsubtypen M₃ (P08483 whole entry): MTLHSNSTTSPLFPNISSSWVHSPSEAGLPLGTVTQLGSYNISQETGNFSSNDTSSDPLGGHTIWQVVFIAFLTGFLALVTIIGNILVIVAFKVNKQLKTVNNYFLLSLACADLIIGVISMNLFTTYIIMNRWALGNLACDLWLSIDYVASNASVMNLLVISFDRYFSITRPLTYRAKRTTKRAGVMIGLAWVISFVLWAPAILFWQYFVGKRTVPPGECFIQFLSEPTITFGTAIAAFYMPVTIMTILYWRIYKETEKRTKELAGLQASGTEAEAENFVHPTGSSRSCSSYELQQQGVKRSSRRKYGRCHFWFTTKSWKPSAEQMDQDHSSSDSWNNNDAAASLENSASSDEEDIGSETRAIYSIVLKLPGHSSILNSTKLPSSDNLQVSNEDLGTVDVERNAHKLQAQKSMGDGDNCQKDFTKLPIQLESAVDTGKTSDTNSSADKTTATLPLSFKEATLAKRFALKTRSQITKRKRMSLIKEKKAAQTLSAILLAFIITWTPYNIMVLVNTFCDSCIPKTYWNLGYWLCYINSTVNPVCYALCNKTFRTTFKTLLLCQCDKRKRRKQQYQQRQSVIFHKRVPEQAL

[5] = molecular target: T2, Muskarinsubtypen M₁ (Rattus norvegicus, UniProt P08482); test: Binding studies at muscarinic subtypes; parameters: species or system Ratte; settings: gegenüber dem Razemat und dem (-)-Enantiomer
T2 sequence (P08482 1-460): T1 sequence (P11229 1-460) with A5V, T254S, P309S, R320K, A337G, I413V

[6] = molecular target: T3, Muskarinsubtypen M₂ (Rattus norvegicus, UniProt P10980); test: Binding studies at muscarinic subtypes; parameters: species or system Ratte; settings: gegenüber dem Razemat und dem (-)-Enantiomer
T3 sequence (P10980 1-466): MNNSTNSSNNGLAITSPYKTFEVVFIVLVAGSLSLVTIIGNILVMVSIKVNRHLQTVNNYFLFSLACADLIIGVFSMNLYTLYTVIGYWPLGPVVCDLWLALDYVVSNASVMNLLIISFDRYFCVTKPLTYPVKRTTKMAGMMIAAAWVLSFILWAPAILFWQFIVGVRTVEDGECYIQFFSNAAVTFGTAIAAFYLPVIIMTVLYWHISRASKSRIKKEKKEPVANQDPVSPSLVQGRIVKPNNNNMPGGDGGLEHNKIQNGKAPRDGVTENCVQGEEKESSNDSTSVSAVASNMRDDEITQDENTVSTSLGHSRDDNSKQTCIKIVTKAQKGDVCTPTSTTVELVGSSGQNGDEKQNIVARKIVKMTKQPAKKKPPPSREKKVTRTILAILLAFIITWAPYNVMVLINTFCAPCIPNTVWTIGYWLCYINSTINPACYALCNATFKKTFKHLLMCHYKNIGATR

c1ccc(COC2CN3CCC2CC3)cc1 (racemic) [Beispiel 4]
Ki [1]: 229 nM

C#CCOCC1CN2CCC1CC2 (single isomer, unassigned; (+)) [(+)-3-(Propargyloxymethyl)-1-azabicyclo[2.2.2]octan]
Stimulation des Phosphatidylinositol-turnovers [2]: stärker wirksam
cholinomimetische in-vivo-Wirksamkeit (Thetawellenzunahme) [3]: nachgewiesen
Bindungsstudien M₃: Wirksamkeit in vitro [4]: stärker wirksam
Bindungsstudien M₁: Wirksamkeit in vitro [5]: stärker wirksam
Bindungsstudien M₂: Wirksamkeit in vitro [6]: stärker wirksam

c1cncc(OC2CN3CCC2CC3)c1 (centres unmarked) [Beispiel 1]
Ki [1]: 120 nM

c1ccc(OC2CN3CCC2CC3)cc1 (centres unmarked) [Beispiel 9, 3-Phenoxy-1-azabicyclo[2.2.2]octan]
Ki [1]: 89 nM
